For the first experiment, the system named is HCV pseudoparticles (genotype 1a HCV E1 and E2 envelope, H77C isolate). The experiment in a line: microbe, parasite or virus in culture. As to conditions: Hepatitis C virus, Huh-7, 48 h, HCV pseudoparticles (genotype 1a, H77C) in Huh7 cells; average of duplicate; luciferase 2 days after infection. It counts as cell-based.
Broadly, the EC50 is the concentration giving half of the maximal effect. With `CC(CNC(=O)C(=O)Nc1cc(F)cc(F)c1)CNC(=O)c1ccc(Nc2nc(NC3(c4ccc(Cl)cc4)CC3)nc(OCC(F)(F)F)n2)cc1` (centres unmarked) [Compound 3469], it took 0.035 nM to reach a half-maximal effect (EC50).

Turning to `CC(C)(CNC(=O)C(N)=O)CNC(=O)c1ccc(Nc2nc(NC3(c4ccc(Cl)cc4)CC3)nc(OCC(F)(F)F)n2)cc1Cl` [Compound 3477], the EC50 was 0.12 nM. Compound `Cc1ccc(NC(=O)C(=O)N2CCCC(CNC(=O)c3ccc(Nc4nc(NC5(c6ccc(Cl)cc6)CC5)nc(OCC(F)(F)F)n4)cc3)C2)cc1` (centres unmarked) [Compound 3481] registered a concentration for a half-maximal effect (EC50) of 0.065 nM. The same measure, in the same setting: the result for `Cc1cc(NC(=O)C(=O)N2CCCC(CNC(=O)c3ccc(Nc4nc(NC5(c6ccc(Cl)cc6)CC5)nc(OCC(F)(F)F)n4)cc3)C2)no1` (centres unmarked) [Compound 3486] reads 0.32 nM; that for `O=C(Nc1cccc(F)c1)C(=O)N[C@H](CCNC(=O)c1ccc(Nc2nc(NC3(c4ccc(Cl)cc4)CC3)nc(OCC(F)(F)F)n2)cc1)C(=O)O` [Compound 3492, (R)-4-(4-((4-((1-(4-chlorophenyl)cyclopropyl)amino)-6-(2,2,2-trifluoroethoxy)-1,3,5-triazin-2-yl)amino)benzamido)-2-(2-((3-fluorophenyl)amino)-2-oxoacetamido)butanoic acid], 0.33 nM. Regarding `O=C(Nc1ccc(F)cc1)C(=O)N(CCO)CCCNC(=O)c1ccc(Nc2nc(NC3(c4ccc(Cl)cc4)CC3)nc(OCC(F)(F)F)n2)cc1` [Compound 3499], the 50% effective concentration (EC50) is 0.46 nM.

Staying with this experiment, now noted: Hepatitis C virus, Huh-7, read-out: Activity (EC50 class), HCV pseudoparticles (genotype 1a, H77C) in Huh7 cells; EC50 expressed as class A/B.
For the compound `CC(CNC(=O)C(=O)Nc1cc(F)cc(F)c1)CNC(=O)c1ccc(Nc2nc(NC3(c4ccc(Cl)cc4)CC3)nc(OCC(F)(F)F)n2)cc1` (centres unmarked) [Compound 3469], the EC50 was in the range of 0.01 to 10 nM. As for `CC(CNC(=O)C(=O)Nc1ccccc1)CNC(=O)c1ccc(Nc2nc(NC3(c4ccc(Cl)cc4)CC3)nc(OCC(F)(F)F)n2)cc1` (centres unmarked) [Compound 3470], the EC50 was in the range of 0.01 to 10 nM. Take `CC(CNC(=O)C(=O)N1CCc2ccccc2C1)CNC(=O)c1ccc(Nc2nc(NC3(c4ccc(Cl)cc4)CC3)nc(OCC(F)(F)F)n2)cc1` (centres unmarked) [Compound 3471]: the EC50 is 0.01 to 10 nM. Same read-out and setting: as for `CC(CNC(=O)C(=O)NC1CCCCC1)CNC(=O)c1ccc(Nc2nc(NC3(c4ccc(Cl)cc4)CC3)nc(OCC(F)(F)F)n2)cc1` (centres unmarked) [Compound 3472], the figure is 0.01 to 10 nM; as for `CC(CNC(=O)C(=O)Nc1ccc(F)cc1F)CNC(=O)c1ccc(Nc2nc(NC3(c4ccc(Cl)cc4)CC3)nc(OCC(F)(F)F)n2)cc1` (centres unmarked) [Compound 3473], 0.01 to 10 nM. Still for that read-out and setting: the result for `Cc1ccc(NC(=O)C(=O)NCC(C)CNC(=O)c2ccc(Nc3nc(NC4(c5ccc(Cl)cc5)CC4)nc(OCC(F)(F)F)n3)cc2)cc1Cl` (centres unmarked) [Compound 3474] reads 0.01 to 10 nM; that for `CC(CNC(=O)C(=O)N1CCCCC1)CNC(=O)c1ccc(Nc2nc(NC3(c4ccc(Cl)cc4)CC3)nc(OCC(F)(F)F)n2)cc1` (centres unmarked) [Compound 3475], 0.01 to 10 nM. Same read-out and setting: the result for `CC(C)CNC(=O)C(=O)NCC(C)CNC(=O)c1ccc(Nc2nc(NC3(c4ccc(Cl)cc4)CC3)nc(OCC(F)(F)F)n2)cc1` (centres unmarked) [Compound 3476] reads 0.01 to 10 nM; that for `CC(C)(CNC(=O)C(N)=O)CNC(=O)c1ccc(Nc2nc(NC3(c4ccc(Cl)cc4)CC3)nc(OCC(F)(F)F)n2)cc1Cl` [Compound 3477], 0.01 to 10 nM. Turning to `CC(C)(CNC(=O)C(N)=O)CNC(=O)c1ccc(Nc2nc(NC3(c4ccc(Cl)cc4)CC3)nc(OCC(F)(F)F)n2)c(O)c1` [Compound 3478], the EC50 was 0.01 to 10 nM. On the same count and under the same terms, as for `O=C(Nc1cccc(F)c1)C(=O)N1CCCC(CNC(=O)c2ccc(Nc3nc(NC4(c5ccc(Cl)cc5)CC4)nc(OCC(F)(F)F)n3)cc2)C1` (centres unmarked) [Compound 3479], the figure is 0.01 to 10 nM.

For the compound `NC(=O)C(=O)N1CCCC(CNC(=O)c2ccc(Nc3nc(NC4(c5ccc(Cl)cc5)CC4)nc(OCC(F)(F)F)n3)cc2)C1` (centres unmarked) [Compound 3480], the half-maximal effective concentration (EC50) fell in the range of 0.01 to 10 nM.

On to `Cc1ccc(NC(=O)C(=O)N2CCCC(CNC(=O)c3ccc(Nc4nc(NC5(c6ccc(Cl)cc6)CC5)nc(OCC(F)(F)F)n4)cc3)C2)cc1` (centres unmarked) [Compound 3481], for which the EC50 is 0.01 to 10 nM. Same read-out and setting: as for `O=C(Nc1ccc(F)cc1)C(=O)N1CCCC(CNC(=O)c2ccc(Nc3nc(NC4(c5ccc(Cl)cc5)CC4)nc(OCC(F)(F)F)n3)cc2)C1` (centres unmarked) [Compound 3482], the figure is 0.01 to 10 nM; as for `O=C(NCc1ccc(F)cc1)C(=O)N1CCCC(CNC(=O)c2ccc(Nc3nc(NC4(c5ccc(Cl)cc5)CC4)nc(OCC(F)(F)F)n3)cc2)C1` (centres unmarked) [Compound 3483], 0.01 to 10 nM.

On to `O=C(Nc1ccc(F)cc1F)C(=O)N1CCCC(CNC(=O)c2ccc(Nc3nc(NC4(c5ccc(Cl)cc5)CC4)nc(OCC(F)(F)F)n3)cc2)C1` (centres unmarked) [Compound 3484], for which the EC50 is 0.01 to 10 nM.

Consider `O=C(Nc1cc(F)cc(F)c1)C(=O)N1CCCC(CNC(=O)c2ccc(Nc3nc(NC4(c5ccc(Cl)cc5)CC4)nc(OCC(F)(F)F)n3)cc2)C1` (centres unmarked) [Compound 3485], for which the concentration giving a half-maximal response (EC50) lay within 0.01 to 10 nM. In the case of `Cc1cc(NC(=O)C(=O)N2CCCC(CNC(=O)c3ccc(Nc4nc(NC5(c6ccc(Cl)cc6)CC5)nc(OCC(F)(F)F)n4)cc3)C2)no1` (centres unmarked) [Compound 3486], the EC50 is 0.01 to 10 nM. The same measure, in the same setting: the result for `O=C(Nc1nccs1)C(=O)N1CCCC(CNC(=O)c2ccc(Nc3nc(NC4(c5ccc(Cl)cc5)CC4)nc(OCC(F)(F)F)n3)cc2)C1` (centres unmarked) [Compound 3487] reads 0.01 to 10 nM; that for `O=C(Nc1ccccc1)C(=O)N1CCCC(CNC(=O)c2ccc(Nc3nc(NC4(c5ccc(Cl)cc5)CC4)nc(OCC(F)(F)F)n3)cc2)C1` (centres unmarked) [Compound 3488], 0.01 to 10 nM. On the same count and under the same terms, as for `O=C(NC1CCCCC1)C(=O)N1CCCC(CNC(=O)c2ccc(Nc3nc(NC4(c5ccc(Cl)cc5)CC4)nc(OCC(F)(F)F)n3)cc2)C1` (centres unmarked) [Compound 3489], the figure is 0.01 to 10 nM; as for `NC(=O)C(=O)N[C@H](CCNC(=O)c1ccc(Nc2nc(NC3(c4ccc(Cl)cc4)CC3)nc(OCC(F)(F)F)n2)cc1)C(=O)O` [Compound 3491], 10 to 1000 nM.

Regarding `O=C(Nc1cccc(F)c1)C(=O)N[C@H](CCNC(=O)c1ccc(Nc2nc(NC3(c4ccc(Cl)cc4)CC3)nc(OCC(F)(F)F)n2)cc1)C(=O)O` [Compound 3492, (R)-4-(4-((4-((1-(4-chlorophenyl)cyclopropyl)amino)-6-(2,2,2-trifluoroethoxy)-1,3,5-triazin-2-yl)amino)benzamido)-2-(2-((3-fluorophenyl)amino)-2-oxoacetamido)butanoic acid], the EC50 is 0.01 to 10 nM. The same measure, in the same setting: the result for `O=C(Nc1cc(F)cc(F)c1)C(=O)N[C@H](CCNC(=O)c1ccc(Nc2nc(NC3(c4ccc(Cl)cc4)CC3)nc(OCC(F)(F)F)n2)cc1)C(=O)O` [Compound 3493] reads 0.01 to 10 nM; that for `O=C(Nc1ccccc1)C(=O)N[C@H](CCNC(=O)c1ccc(Nc2nc(NC3(c4ccc(Cl)cc4)CC3)nc(OCC(F)(F)F)n2)cc1)C(=O)O` [Compound 3494], 0.01 to 10 nM; that for `O=C(N[C@H](CCNC(=O)c1ccc(Nc2nc(NC3(c4ccc(Cl)cc4)CC3)nc(OCC(F)(F)F)n2)cc1)C(=O)O)C(=O)N1CCc2ccccc2C1` [Compound 3495], 0.01 to 10 nM. On the same count and under the same terms, as for `O=C(Nc1nccs1)C(=O)N[C@H](CCNC(=O)c1ccc(Nc2nc(NC3(c4ccc(Cl)cc4)CC3)nc(OCC(F)(F)F)n2)cc1)C(=O)O` [Compound 3496], the figure is 10 to 1000 nM; as for `O=C(Nc1cccc(F)c1)C(=O)N(CCO)CCCNC(=O)c1ccc(Nc2nc(NC3(c4ccc(Cl)cc4)CC3)nc(OCC(F)(F)F)n2)cc1` [Compound 3497], 0.01 to 10 nM.

Turning to `NC(=O)C(=O)N(CCO)CCCNC(=O)c1ccc(Nc2nc(NC3(c4ccc(Cl)cc4)CC3)nc(OCC(F)(F)F)n2)cc1` [Compound 3498], the EC50 lay in the range of 0.01 to 10 nM. For `O=C(Nc1ccc(F)cc1)C(=O)N(CCO)CCCNC(=O)c1ccc(Nc2nc(NC3(c4ccc(Cl)cc4)CC3)nc(OCC(F)(F)F)n2)cc1` [Compound 3499], the EC50 is 0.01 to 10 nM. For `Cc1cc(NC(=O)C(=O)N(CCO)CCCNC(=O)c2ccc(Nc3nc(NC4(c5ccc(Cl)cc5)CC4)nc(OCC(F)(F)F)n3)cc2)no1` [Compound 3500], the EC50 lay within 0.01 to 10 nM.

On to `Cc1ccc(NC(=O)C(=O)N(CCO)CCCNC(=O)c2ccc(Nc3nc(NC4(c5ccc(Cl)cc5)CC4)nc(OCC(F)(F)F)n3)cc2)cc1` [Compound 3501], for which the EC50 lay in the range of 0.01 to 10 nM. Still for that read-out and setting: as for `O=C(NCc1ccc(F)cc1)C(=O)N(CCO)CCCNC(=O)c1ccc(Nc2nc(NC3(c4ccc(Cl)cc4)CC3)nc(OCC(F)(F)F)n2)cc1` [Compound 3502], the figure is 0.01 to 10 nM; as for `O=C(Nc1ccc(F)cc1F)C(=O)N(CCO)CCCNC(=O)c1ccc(Nc2nc(NC3(c4ccc(Cl)cc4)CC3)nc(OCC(F)(F)F)n2)cc1` [Compound 3503], 0.01 to 10 nM. Turning to `O=C(N[C@H](CCNC(=O)c1ccc(Nc2nc(NC3(c4ccc(Cl)cc4)CC3)nc(OCC(F)(F)F)n2)cc1)C(=O)O)C(=O)N1CCCCC1` [Compound 3504], the EC50 lay in the range of 0.01 to 10 nM.
